# Patent publication US8258134B2, “Pyridazinone glucokinase activators” (Hoffmann-La Roche Inc., priority 2008, dated 2012)
# Molecular target: T1, Recombinant human liver GK1 (GST-GK) (Homo sapiens, UniProt P35557)
# T1 construct: made in house; host or cells: E. coli
# T1 sequence (P35557 1-466 isoform P35557-2): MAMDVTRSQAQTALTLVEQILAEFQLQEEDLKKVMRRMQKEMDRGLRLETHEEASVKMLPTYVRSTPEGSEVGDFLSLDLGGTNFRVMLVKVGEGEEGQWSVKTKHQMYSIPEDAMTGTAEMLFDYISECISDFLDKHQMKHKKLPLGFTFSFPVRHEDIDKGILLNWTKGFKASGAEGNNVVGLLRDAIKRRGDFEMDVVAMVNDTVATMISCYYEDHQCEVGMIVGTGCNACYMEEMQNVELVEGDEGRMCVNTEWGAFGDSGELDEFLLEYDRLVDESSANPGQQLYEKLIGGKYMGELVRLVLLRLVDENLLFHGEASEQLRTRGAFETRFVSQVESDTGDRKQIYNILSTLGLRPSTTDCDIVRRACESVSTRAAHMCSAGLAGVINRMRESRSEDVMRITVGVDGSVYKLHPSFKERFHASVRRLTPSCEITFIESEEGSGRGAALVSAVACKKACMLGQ
# Experiment: Glucokinase in vitro assay (G6PDH-coupled NADH generation, OD340)
# Format: biochemical
# Conditions: 30 uM test compound, 5 mM D-glucose
# How it was run: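 GST-tagged recombinant GK1 expressed in E. coli, run at 30° C, pH 7.1 Hepes with 5 mM D-glucose, 1 mM ATP and 1.8 mM NAD, G6PDH-coupled. Compounds were in 10% DMSO final, with a 10 min pre-incubation before enzyme addition. OD340/min rate measured; SC1.5 is the activator concentration giving a 50% increase in activity.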
row,fold activation @ 30 uM,Structure (SMILES)
1,1.36 fold,"CC(C)CC(C(=O)Nc1ccn(C[C@@H](O)CO)n1)n1ncc(Nc2ccccc2Cl)cc1=O (stereo partly drawn) [Example 122, 2-[4-(2-Chloro-phenylamino)-6-oxo-6H-pyridazin-1-yl]-4-methyl-pentanoic acid [1-((R)-2,3-dihydroxy-propyl)-1H-pyrazol-3-yl]-amide]"

# Same assay, conditions: 5 mM D-glucose, 30° C., pH 7.1, 10% DMSO
row,SC1.5 average (concentration of activator that produced a 50% increase in the activity of GK),Structure (SMILES)
1,0.139 µM,"O=C(Nc1ccn(C[C@@H](O)CO)n1)C(CC1CCCC1)n1ncc(Oc2cccc(Cl)c2F)cc1=O (stereo partly drawn) [Example 104, 2-[4-(3-Chloro-2-fluoro-phenoxy)-6-oxo-6H-pyridazin-1-yl]-3-cyclopentyl-N-[1-((R)-2,3-dihydroxy-propyl)-1H-pyrazol-3-yl]-propionamide]"
2,0.072 µM,"O=C(Nc1ccn(C[C@@H](O)CO)n1)C(CC1CCCC1)n1ncc(Oc2c(F)cccc2F)cc1=O (stereo partly drawn) [Example 105, 3-Cyclopentyl-2-[4-(2,6-difluoro-phenoxy)-6-oxo-6H-pyridazin-1-yl]-N-[1-((R)-2,3-dihydroxy-propyl)-1H-pyrazol-3-yl]-propionamide]"
3,0.29 µM,"CC(C)CC(C(=O)Nc1ccn(C[C@@H](O)CO)n1)n1ncc(Oc2cccc3c2CCCC3)cc1=O (stereo partly drawn) [Example 110, 4-Methyl-2-[6-oxo-4-(5,6,7,8-tetrahydro-naphthalen-1-yloxy)-6H-pyridazin-1-yl]-pentanoic acid [1-((R)-2,3-dihydroxy-propyl)-1H-pyrazol-3-yl]-amide]"
4,0.543 µM,"COc1ccc(Oc2cnn(C(CC3CCCCC3)C(=O)Nc3ccn(CC(C)(C)O)n3)c(=O)c2)c(F)c1 (stereo not drawn) [Example 116, 3-Cyclohexyl-2-[4-(2-fluoro-4-methoxy-phenoxy)-6-oxo-6H-pyridazin-1-yl]-N-[1-(2-hydroxy-2-methyl-propyl)-1H-pyrazol-3-yl]-propionamide]"
5,0.352 µM,"Cc1ccc(Oc2cnn(C(CC3CCCCC3)C(=O)Nc3ccn(CC(C)(C)O)n3)c(=O)c2)c(C)c1 (stereo not drawn) [Example 117, 3-Cyclohexyl-2-[4-(2,4-dimethyl-phenoxy)-6-oxo-6H-pyridazin-1-yl]-N-[1-(2-hydroxy-2-methyl-propyl)-1H-pyrazol-3-yl]-propionamide]"
6,2.461 µM,"CC(C)(O)Cn1ccc(NC(=O)C(CC2CCCC2)n2ncc([S+]([O-])c3ccccc3)cc2=O)n1 (stereo not drawn) [Example 124, 2-(4-Benzenesulfinyl-6-oxo-6H-pyridazin-1-yl)-3-cyclopentyl-N-[1-(2-hydroxy-2-methyl-propyl)-1H-pyrazol-3-yl]-propionamide]"
7,2.611 µM,"CC(C)(O)Cn1ccc(NC(=O)C(CC2CCCC2)n2ncc(S(=O)(=O)c3ccccc3)cc2=O)n1 (stereo not drawn) [Example 125, 2-(4-Benzenesulfonyl-6-oxo-6H-pyridazin-1-yl)-3-cyclopentyl-N-[1-(2-hydroxy-2-methyl-propyl)-1H-pyrazol-3-yl]-propionamide]"

# The next lines start with the molecule.
row,Structure (SMILES),SC1.5 average (concentration of activator that produced a 50% increase in the activity of GK)
1,"Cn1nc(C(F)(F)F)cc1Oc1cnn(C(CC2CCCC2)C(=O)Nc2ccn(C[C@@H](O)CO)n2)c(=O)c1 (stereo partly drawn) [Example 103, 3-Cyclopentyl-N-[1-((R)-2,3-dihydroxy-propyl)-1H-pyrazol-3-yl]-2-[4-(2-methyl-5-trifluoromethyl-2H-pyrazol-3-yloxy)-6-oxo-6H-pyridazin-1-yl]-propionamide]",2.591 µM
2,"Cc1ccc(F)c(Oc2cnn(C(CC3CCCC3)C(=O)Nc3ccn(C[C@@H](O)CO)n3)c(=O)c2)c1F (stereo partly drawn) [Example 107, 3-Cyclopentyl-2-[4-(2,6-difluoro-3-methyl-phenoxy)-6-oxo-6H-pyridazin-1-yl]-N-[1-((R)-2,3-dihydroxy-propyl)-1H-pyrazol-3-yl]-propionamide]",0.042 µM
3,"O=C(Nc1ccn(C[C@@H](O)CO)n1)C(Cc1c(F)cccc1F)n1ncc(Oc2c(F)cccc2F)cc1=O (stereo partly drawn) [Example 108, 2-[4-(2,6-Difluoro-phenoxy)-6-oxo-6H-pyridazin-1-yl]-3-(2,6-difluoro-phenyl)-N-[1-((R)-2,3-dihydroxy-propyl)-1H-pyrazol-3-yl]-propionamide]",0.521 µM
4,"CC(C)CC(C(=O)Nc1ccn(C[C@@H](O)CO)n1)n1ncc(Oc2cccc3ccccc23)cc1=O (stereo partly drawn) [Example 109, 4-Methyl-2-[4-(naphthalen-1-yloxy)-6-oxo-6H-pyridazin-1-yl]-pentanoic acid [1-((R)-2,3-dihydroxy-propyl)-1H-pyrazol-3-yl]-amide]",0.293 µM
5,"CC(C)CC(C(=O)Nc1ccn(C[C@@H](O)CO)n1)n1ncc(Oc2cccc3[nH]ccc23)cc1=O (stereo partly drawn) [Example 111, 2-[4-(1H-Indol-4-yloxy)-6-oxo-6H-pyridazin-1-yl]-4-methyl-pentanoic acid [1-((R)-2,3-dihydroxy-propyl)-1H-pyrazol-3-yl]-amide]",0.554 µM
6,"CC(C)CC(C(=O)Nc1ccn(C[C@@H](O)CO)n1)n1ncc(-n2ccc3c(O)cccc32)cc1=O (stereo partly drawn) [Example 112, 2-[4-(4-Hydroxy-indol-1-yl)-6-oxo-6H-pyridazin-1-yl]-4-methyl-pentanoic acid [1-((R)-2,3-dihydroxy-propyl)-1H-pyrazol-3-yl]-amide]",2.606 µM
7,"CC(C)CC(C(=O)Nc1ccn(C)n1)n1ncc(Oc2cccc3c2ccn3C[C@@H](O)CO)cc1=O (stereo partly drawn) [Example 113, 2-{4-[1-((R)-2,3-Dihydroxy-propyl)-1H-indol-4-yloxy]-6-oxo-6H-pyridazin-1-yl}-4-methyl-pentanoic acid (1-methyl-1H-pyrazol-3-yl)-amide]",2.308 µM
8,"O=C(Nc1ccn(C[C@@H](O)CO)n1)C(CC1CCCC1)n1ncc(OCCc2ccccc2Cl)cc1=O (stereo partly drawn) [Example 114, 2-{4-[2-(2-Chloro-phenyl)-ethoxy]-6-oxo-6H-pyridazin-1-yl}-3-cyclopentyl-N-[1-((R)-2,3-dihydroxy-propyl)-1H-pyrazol-3-yl]-propionamide]",1.656 µM
9,"O=C(Nc1ccn(C[C@@H](O)CO)n1)C(CC1CCCC1)n1ncc(Oc2nccc(C(F)(F)F)n2)cc1=O (stereo partly drawn) [Example 115, 3-Cyclopentyl-N-[1-((R)-2,3-dihydroxy-propyl)-1H-pyrazol-3-yl]-2-[6-oxo-4-(4-trifluoromethyl-pyrimidin-2-yloxy)-6H-pyridazin-1-yl]-propionamide]",0.376 µM
10,"COc1ccc(Oc2cnn(C(CC3CCCCC3)C(=O)Nc3ccn(CC(C)(C)O)n3)c(=O)c2)c(Cl)c1 (stereo not drawn) [Example 118, 2-[4-(2-Chloro-4-methoxy-phenoxy)-6-oxo-6H-pyridazin-1-yl]-3-cyclohexyl-N-[1-(2-hydroxy-2-methyl-propyl)-1H-pyrazol-3-yl]-propionamide]",0.237 µM
11,"CC(C)(O)Cn1ccc(NC(=O)C(CC2CCCCC2)n2ncc(Oc3ccc(OC(F)(F)F)cc3Cl)cc2=O)n1 (stereo not drawn) [Example 119, 2-[4-(2-Chloro-4-trifluoromethoxy-phenoxy)-6-oxo-6H-pyridazin-1-yl]-3-cyclohexyl-N-[1-(2-hydroxy-2-methyl-propyl)-1H-pyrazol-3-yl]-propionamide]",0.811 µM
12,"CCOc1ccc(F)c(Oc2cnn(C(CC(C)C)C(=O)Nc3ccn(C[C@@H](O)CO)n3)c(=O)c2)c1F (stereo partly drawn) [Example 120, 2-[4-(3-ethoxy-2,6-difluoro-phenoxy)-6-oxo-6H-pyridazin-1-yl]-4-methyl-pentanoic acid [1-((R)-2,3-dihydroxy-propyl)-1H-pyrazol-3-yl]-amide]",0.18 µM
13,"CCOc1ccc(F)c(Oc2cnn(C(CC3CCOCC3)C(=O)Nc3ccn(C[C@@H](O)CO)n3)c(=O)c2)c1F (stereo partly drawn) [Example 121, N-[1-((R)-2,3-Dihydroxy-propyl)-1H-pyrazol-3-yl]-2-[4-(3-ethoxy-2,6-difluoro-phenoxy)-6-oxo-6H-pyridazin-1-yl]-3-(tetrahydro-pyran-4-yl)-propionamide]",0.088 µM
14,"CC(C)CC(C(=O)Nc1ccn(C[C@@H](O)CO)n1)n1ncc(Nc2ccccc2Cl)cc1=O (stereo partly drawn) [Example 122, 2-[4-(2-Chloro-phenylamino)-6-oxo-6H-pyridazin-1-yl]-4-methyl-pentanoic acid [1-((R)-2,3-dihydroxy-propyl)-1H-pyrazol-3-yl]-amide]",> 30 µM
15,"CC(C)(O)Cn1ccc(NC(=O)C(CC2CCCC2)n2ncc(Sc3ccccc3)cc2=O)n1 (stereo not drawn) [Example 123, 3-Cyclopentyl-N-[1-(2-hydroxy-2-methyl-propyl)-1H-pyrazol-3-yl]-2-(6-oxo-4-phenylsulfanyl-6H-pyridazin-1-yl)-propionamide]",0.441 µM
16,"CC(C)CC(C(=O)Nc1ccn(C[C@@H](O)CO)n1)n1ncc(Oc2cccc(C(F)(F)F)c2Cl)cc1=O (stereo partly drawn) [Example 126, 2-[4-(2-Chloro-3-trifluoromethyl-phenoxy)-6-oxo-6H-pyridazin-1-yl]-4-methyl-pentanoic acid [1-((R)-2,3-dihydroxy-propyl)-1H-pyrazol-3-yl]-amide]",1.221 µM
